Measured values taken from US12570647B2 (Saint Louis University, priority 2021, dated 2026).
In brackets after ≈: the same amount, converted by molar mass.

Tested on: S. aureus ATCC25923
Test: S. aureus MIC80 determination, broth microdilution (CLSI) in CAMHB
Assay type: cell-based
Conditions: Staphylococcus aureus, ATCC25923; Table 1; S. aureus ATCC 25923; growth inhibition ≥80% vs vehicle, 16-24 h; read-out: ATCC 25923 MIC80
Description: S. Aureus MIC80 determinations in S. aureus ATCC25923 or in multidrug-resistant strains AR215, AR217 and AR255. MIC80's were determined by the broth microdilution method recommended by the Clinical and Laboratory Standards Institute (CLSI) in Cation-adjusted Mueller-Hinton broth (CAMHB). (Cao et al., 2018). In the preliminary screening, three compound concentrations were used: 5.8, 20.4, and 71.4 μM; for quantitative MIC80 measurements, a 1.5-fold dilution series of the compounds was prepared in CAMHB. Overnight bacterial culture was added to the diluted compounds in a 96-well plate after adjusting the bacterial concentration to achieve a 5×10^5 CFU/mL final concentration. After 16-24 h incubation at 35±2° C., the plates were read at 600 nm in a microplate reader. The MIC80 was defined as the concentration of an antibacterial agent that inhibited bacteria growth ≥80% compared to vehicle-treated control cultures. All values were determined at least twice independently, and the average number is reported.

SMILES: Cc1cc(Cl)cc2sc(NCCCn3ccnc3)nc12 [Example 1, N-(3-(1H-imidazol-1-yl)propyl)-6-chloro-4-methylbenzo[d]thiazol-2-amine]
- MIC80: 19.8 µM (≈ 6.08 µg/mL)

SMILES: Cc1cc(Cl)cc2sc(N(CCCn3ccnc3)C(=O)c3ccco3)nc12 [Example 2, N-(3-(1H-imidazol-1-yl)propyl)-N-(6-chloro-4-methylbenzo[d]thiazol-2-yl)furan-2-carboxamide]
- MIC80: 1.7 µM (≈ 0.682 µg/mL)

SMILES: Cc1cc(Cl)cc2sc(N(CCCn3ccnc3)C(=O)c3ccccc3)nc12 [Example 3, N-(3-(1H-imidazol-1-yl)propyl)-N-(6-chloro-4-methylbenzo[d]thiazol-2-yl)benzamide]
- MIC80: 3.9 µM (≈ 1.6 µg/mL)

SMILES: Cc1cc(Cl)cc2sc(N(CCCn3ccnc3)C(=O)c3ccccn3)nc12 [Example 5, N-(3-(1H-imidazol-1-yl)propyl)-N-(6-chloro-4-methylbenzo[d]thiazol-2-yl)picolinamide]
- MIC80: 8.8 µM (≈ 3.62 µg/mL)

SMILES: Cc1cc(Cl)cc2sc(N(CCCn3ccnc3)C(=O)/C=C/c3ccco3)nc12 [Example 6, (E)-N-(3-(1H-imidazol-1-yl)propyl)-N-(6-chloro-4-methylbenzo[d]thiazol-2-yl)-3-(furan-2-yl)acrylamide]
- MIC80: 2.6 µM (≈ 1.11 µg/mL)

SMILES: Cc1cc(Cl)cc2sc(N(CCCn3ccnc3)C(=O)c3ccoc3)nc12 [Example 7, N-(3-(1H-imidazol-1-yl)propyl)-N-(6-chloro-4-methylbenzo[d]thiazol-2-yl)furan-3-carboxamide]
- MIC80: 2.6 µM (≈ 1.04 µg/mL)

SMILES: Cc1cc(Cl)cc2sc(N(CCCn3ccnc3)C(=O)C3CCCC3)nc12 [Example 8, N-(3-(1H-imidazol-1-yl)propyl)-N-(6-chloro-4-methylbenzo[d]thiazol-2-yl)cyclopentanecarboxamide]
- MIC80: 3.9 µM (≈ 1.57 µg/mL)

SMILES: Cc1ccc(C(=O)N(CCCn2ccnc2)c2nc3c(C)cc(Cl)cc3s2)s1 [Example 9, N-(3-(1H-imidazol-1-yl)propyl)-N-(6-chloro-4-methylbenzo[d]thiazol-2-yl)-5-methylthiophene-2-carboxamide]
- MIC80: 2.6 µM (≈ 1.12 µg/mL)

SMILES: Cc1cc(Cl)cc2sc(N(CCCn3ccnc3)C(=O)C3CC3)nc12 [Example 10, N-(3-(1H-imidazol-1-yl)propyl)-N-(6-chloro-4-methylbenzo[d]thiazol-2-yl)cyclopropanecarboxamide]
- MIC80: 1.7 µM (≈ 0.637 µg/mL)

SMILES: Cc1cc(Cl)cc2sc(N(CCCn3ccnc3)C(=O)C(C)C)nc12 [Example 11, N-(3-(1H-imidazol-1-yl)propyl)-N-(6-chloro-4-methylbenzo[d]thiazol-2-yl)isobutyramide]
- MIC80: 2.7 µM (≈ 1.02 µg/mL)

SMILES: Cc1cc(Cl)cc2sc(N(CCCn3ccnc3)C(=O)c3ccc(C(=O)O)cc3)nc12 [Example 12, 4-((3-(1H-imidazol-1-yl)propyl)(6-chloro-4-methylbenzo[d]thiazol-2-yl)carbamoyl)benzoic acid]
- MIC80: > 100 µM

SMILES: Cc1cc(Cl)cc2sc(N(CCCn3ccnc3)C(=O)c3cc4ccccc4o3)nc12 [Example 13, N-(3-(1H-imidazol-1-yl)propyl)-N-(6-chloro-4-methylbenzo[d]thiazol-2-yl)benzofuran-2-carboxamide]
- MIC80: 8.8 µM (≈ 3.97 µg/mL)

SMILES: Cc1cc(Cl)cc2sc(N(CCCn3ccnc3)C(=O)C3CCCO3)nc12 (centres unmarked) [Example 14, N-(3-(1H-imidazol-1-yl)propyl)-N-(6-chloro-4-methylbenzo[d]thiazol-2-yl)tetrahydrofuran-2-carboxamide]
- MIC80: 29.6 µM (≈ 12 µg/mL)

SMILES: Cc1cc(C(=O)N(CCCn2ccnc2)c2nc3c(C)cc(Cl)cc3s2)oc1C [Example 16, N-(3-(1H-imidazol-1-yl)propyl)-N-(6-chloro-4-methylbenzo[d]thiazol-2-yl)-4,5-dimethylfuran-2-carboxamide]
- MIC80: 3.9 µM (≈ 1.67 µg/mL)

SMILES: Cc1cc(Cl)cc2sc(N(CCCn3ccnc3)C(=O)C3CCC3)nc12 [Example 17, N-(3-(1H-imidazol-1-yl)propyl)-N-(6-chloro-4-methylbenzo[d]thiazol-2-yl)cyclobutanecarboxamide]
- MIC80: 2.6 µM (≈ 1.01 µg/mL)

SMILES: Cc1cc(Cl)cc2sc(N(CCCn3ccnc3)C(=O)C3(C)CC3)nc12 [Example 18, N-(3-(1H-imidazol-1-yl)propyl)-N-(6-chloro-4-methylbenzo[d]thiazol-2-yl)-1-methylcyclopropanecarboxamide]
- MIC80: 5.9 µM (≈ 2.29 µg/mL)

SMILES: Cc1cc(Cl)cc2sc(N(CCCn3ccnc3)C(=O)c3ccc[nH]3)nc12 [Example 19, N-(3-(1H-imidazol-1-yl)propyl)-N-(6-chloro-4-methylbenzo[d]thiazol-2-yl)-1H-pyrrole-2-carboxamide]
- MIC80: 1.3 µM (≈ 0.52 µg/mL)

SMILES: CSCc1ccc(C(=O)N(CCCn2ccnc2)c2nc3c(C)cc(Cl)cc3s2)o1 [Example 20, N-(3-(1H-imidazol-1-yl)propyl)-N-(6-chloro-4-methylbenzo[d]thiazol-2-yl)-5-((methylthio)methyl)furan-2-carboxamide]
- MIC80: 2.9 µM (≈ 1.34 µg/mL)

SMILES: Cc1cc(Cl)cc2sc(N(CCCn3ccnc3)C(=O)[C@H](Cc3ccccc3)NC(=O)OC(C)(C)C)nc12 [Example 21, (S)-tert-butyl (1-((3-(1H-imidazol-1-yl)propyl)(6-chloro-4-methylbenzo[d]thiazol-2-yl)amino)-1-oxo-3-phenylpropan-2-yl)carbamate]
- MIC80: 14.8 µM (≈ 8.2 µg/mL)

SMILES: Cc1cc(Cl)cc2sc(N(CCCn3ccnc3)S(=O)(=O)c3cccs3)nc12 [Example 22, N-(3-(1H-imidazol-1-yl)propyl)-N-(6-chloro-4-methylbenzo[d]thiazol-2-yl)thiophene-2-sulfonamide]
- MIC80: 3.9 µM (≈ 1.77 µg/mL)

SMILES: Cc1cc(Cl)cc2sc(N(CCCn3ccnc3)S(=O)(=O)c3ccccc3)nc12 [Example 23, N-(3-(1H-imidazol-1-yl)propyl)-N-(6-chloro-4-methylbenzo[d]thiazol-2-yl)benzenesulfonamide]
- MIC80: 3.9 µM (≈ 1.74 µg/mL)

SMILES: Cc1cc(Cl)cc2sc(N(CCCn3ccnc3)S(=O)(=O)C3CCCCC3)nc12 [Example 24, N-(3-(1H-imidazol-1-yl)propyl)-N-(6-chloro-4-methylbenzo[d]thiazol-2-yl)cyclohexanesulfonamide]
- MIC80: 13.2 µM (≈ 5.98 µg/mL)

SMILES: Cc1cc(Cl)cc2sc(N(CCCn3ccnc3)S(=O)(=O)c3ccco3)nc12 [Example 25, N-(3-(1H-imidazol-1-yl)propyl)-N-(6-chloro-4-methylbenzo[d]thiazol-2-yl)furan-2-sulfonamide]
- MIC80: 8.8 µM (≈ 3.85 µg/mL)

SMILES: Cc1cc(Cl)cc2sc(N(CCCn3ccnc3)Cc3ccccc3)nc12 [Example 26, N-(3-(1H-imidazol-1-yl)propyl)-N-benzyl-6-chloro-4-methylbenzo[d]thiazol-2-amine]
- MIC80: 3.9 µM (≈ 1.55 µg/mL)

SMILES: Cc1cc(Cl)cc2sc(N(CCCn3ccnc3)CC3CC3)nc12 [Example 27, N-(3-(1H-imidazol-1-yl)propyl)-6-chloro-N-(cyclopropylmethyl)-4-methylbenzo[d]thiazol-2-amine]
- MIC80: 6.6 µM (≈ 2.38 µg/mL)

SMILES: Cc1cc(Cl)cc2sc(N(CCCn3ccnc3)CCCn3ccnc3)nc12 [Example 28, N,N-bis(3-(1H-imidazol-1-yl)propyl)-6-chloro-4-methylbenzo[d]thiazol-2-amine]
- MIC80: 5.9 µM (≈ 2.45 µg/mL)

SMILES: Cc1cc(Cl)cc2sc(N(CCCn3cc[n+](C)c3)C(=O)c3ccco3)nc12 [Example 29, 1-(3-(N-(6-chloro-4-methylbenzo[d]thiazol-2-yl)furan-2-carboxamido)propyl)-3-methyl-1H-imidazol-3-ium]
- MIC80: 13.2 µM

SMILES: Cc1cc(Cl)cc2sc(N3CCNCC3)nc12 [Example 30, 6-chloro-4-methyl-2-(piperazin-1-yl)-1,3-benzothiazole]
- MIC80: 100 µM (≈ 26.8 µg/mL)

SMILES: CC(=O)N1CCN(c2nc3c(C)cc(Cl)cc3s2)CC1 [Example 31, 1-(4-(6-chloro-4-methylbenzo[d]thiazol-2-yl)piperazin-1-yl)ethan-1-one]
- MIC80: > 100 µM
